Test results: US20230083012A1, “DIHYDROPYRIMIDINE DERIVATIVES AND USES THEREOF IN THE TREATMENT OF HBV INFECTION OR OF HBV-INDUCED DISEASES” (priority 2019, published 2023)
Like-named read-outs stand apart in the source and are kept apart here.

Columns and labels:
HBV = experiment: Anti-HBV activity in HepG2.2.15 cells (HBV DNA in culture medium by qPCR); format: cell-based
Summary of the method: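 HepG2.2.15 cells in 2% FBS medium at 37 °C were treated with compounds for 6 days, with medium and compound refreshed at day 3; 1:3 dilutions, 8 concentrations in triplicate, top 10 or 1 uM. HBV DNA in culture medium quantified by qPCR to derive EC50; CC50 from parallel plates (top 100 uM).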

[1] = Cytotoxicity determination in HepG2.2.15 cells (CCK-8 cell viability); format: cell-based; conditions: human, 6 days treatment, CCK-8 assay, highest concentration 100 uM
Summary of the method: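 HepG2.2.15 cells seeded at 5,000 cells/well in 2% FBS medium, exposed 6 days to compounds (8-point 1:3 dilutions from 100 uM, triplicate), refreshed at day 3. Viability read by CCK-8 after 2.5 h at 37° C, absorbance 450 nm with 630 nm reference; CC50 calculated.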

[2] = Hepatitis B virus, HepG2.2.15, 144 h, HepG2.2.15 cells, 6 days treatment, HBV DNA in culture medium quantified by real-time PCR, read-out: EC50

Q: Which results are given for [2H]C([2H])([2H])N1C[C@@H]2[C@H](N1CCC(C)(C)C(=O)O)C(F)(F)CN2CC1=C(C(=O)OCC)[C@H](c2cccc(F)c2C)N=C(c2nccs2)N1 (single isomer, unassigned) [Compound 100]?
A: EC50 (HBV; [2]): 11 nM; CC50 at 6 days [1]: 12000 nM

Q: For [H][C@]1(N2CC[C@H]3[C@@H]2C(F)(F)CN3CC2=C(C(=O)OC)[C@H](c3cccc(F)c3F)N=C(c3nccs3)N2)C[C@]2(C[C@@H](C(=O)O)C2)C1 (single isomer, unassigned) [Compound 120B], which EC50 (HBV; HepG2.2.15 cells, 6 days treatment, HBV DNA in culture medium quantified by real-time PCR, read-out: EC50) is on record?
A: 13 nM

Q: What about the CC50 at 6 days [1] of the same molecule?
A: 19900 nM

Q: With CCOC(=O)C1=C(CN2CC(F)(F)[C@H]3[C@@H]2CCN3CCCC(C)(C)C(=O)O)NC(c2nccs2)=N[C@H]1c1cccc(F)c1C (single isomer, unassigned) [Compound 144] as the molecule, how does the EC50 (HBV; [2]) read?
A: 19.8 nM

Q: What about the CC50 at 6 days [1] of the same molecule?
A: 20200 nM

Q: Which EC50 (HBV; [2]) does the source give for CCOC(=O)C1=C(CN2CC(F)(F)[C@H]3[C@@H]2CCN3C2CC(C(=O)O)C2)NC(c2nccs2)=N[C@H]1c1cccc(F)c1C (relative stereo) [Compound 39A, 3-(4-(((S)-5-(ethoxycarbonyl)-6-(3-fluoro-2-methylphenyl)-2-(thiazol-2-yl)-3,6-dihydropyrimidin-4-yl)methyl)-6,6-difluorohexahydropyrrolo[3,2-b]pyrrol-1(2H)-yl)cyclobutane-1-carboxylic acid] here?
A: 2.4 nM

Q: What about the CC50 at 6 days [1] of the same molecule?
A: 35000 nM

Q: Which results are given for CCOC(=O)C1=C(CN2CC(F)(F)[C@@H]3[C@H]2CN(C(=O)C(F)(F)F)N3CCC(C)(C)C(=O)O)NC(c2nccs2)=N[C@H]1c1cccc(F)c1C (stereo in doubt) [Compound 71, 4-((cis)-4-(((S)-5-(ethoxycarbonyl)-6-(3-fluoro-2-methylphenyl)-2-(thiazol-2-yl)-3,6-dihydropyrimidin-4-yl)methyl)-6,6-difluoro-2-(2,2,2-trifluoroacetyl)hexahydropyrrolo[3,2-c]pyrazol-1(2H)-yl)-2,2-dimethylbutanoic acid]?
A: EC50 (HBV; Hepatitis B virus, HepG2.2.15, 144 h): 29 nM; CC50 at 6 days [1]: 20900 nM

Q: Which results are given for CCOC(=O)C1=C(CN2CC(F)(F)[C@H]3[C@@H]2CCN3[C@@H](C)C(=O)O)NC(c2nccs2)=N[C@H]1c1cccc(F)c1C (single isomer, unassigned) [Compound 26F]?
A: EC50 (HBV; [2]): 14.8 nM; CC50 at 6 days [1]: 41700 nM

Q: For CCOC(=O)C1=C(CN2CC(F)(F)[C@@H]3C(=O)N(CC(C)(C)c4nn[nH]n4)C[C@@H]32)NC(c2nccs2)=N[C@H]1c1cccc(F)c1C (single isomer, unassigned) [Compound 200], which EC50 (HBV; [2]) is on record?
A: 34.7 nM

Q: What about the CC50 at 6 days [1] of the same molecule?
A: 91300 nM

Q: With CCOC(=O)C1=C(CN2CC(F)(F)[C@H]3[C@@H]2CCN3CC(C)(C)C(=O)NS(C)(=O)=O)NC(c2nccs2)=N[C@H]1c1cccc(F)c1C (single isomer, unassigned) [Compound 109] as the molecule, how does the EC50 (HBV; [2]) read?
A: < 1 nM

Q: What about the CC50 at 6 days [1] of the same molecule?
A: 7300 nM

Q: With COC(=O)C1=C(CN2CC(F)(F)[C@@H]3C(=O)N(CC(C)(C)C(=O)O)C[C@@H]32)NC(c2nccs2)=N[C@H]1c1ccc(F)cc1Cl (single isomer, unassigned) [Compound 28, 3-((cis)-1-((6-(2-chloro-4-fluorophenyl)-5-(methoxycarbonyl)-2-(thiazol-2-yl)-3,6-dihydropyrimidin-4-yl)methyl)-3,3-difluoro-4-oxohexahydropyrrolo[3,4-b]pyrrol-5(1H)-yl)-2,2-dimethylpropanoic acid] as the molecule, how does the EC50 (HBV; [2]) read?
A: 28.2 nM

Q: What about the CC50 at 6 days [1] of the same molecule?
A: > 100000 nM

Q: For CCOC(=O)C1=C(CN2CC(F)(F)[C@H]3[C@@H]2CCN3CCC(C)(C)C(=O)O)NC(c2nccs2)=N[C@H]1c1ccc(F)cc1Cl (single isomer, unassigned) [Compound 141], which EC50 (HBV; [2]) is on record?
A: 3.5 nM

Q: What about the CC50 at 6 days [1] of the same molecule?
A: 26700 nM

Q: For CCOC(=O)C1=C(CN2CC(F)(F)[C@H]3[C@@H]2CCN3CCC(C)(C)C(=O)O)NC(c2nccn2C)=N[C@H]1c1cccc(F)c1C (single isomer, unassigned) [Compound 146, 4-((cis)-4-((5-(Ethoxycarbonyl)-6-(3-fluoro-2-methylphenyl)-2-(1-methyl-1H-imidazol-2-yl)-3,6-dihydropyrimidin-4-yl)methyl)-6,6-difluorohexahydropyrrolo[3,2-b]pyrrol-1(2H)-yl)-2,2-dimethylbutanoic acid], which EC50 (HBV; [2]) is on record?
A: 13.1 nM

Q: And the CC50 at 6 days [1]?
A: 32200 nM

Q: With CCOC(=O)C1=C(CN2CC(F)(F)[C@@H]3CN(C4(C(=O)O)CC4)C[C@@H]32)NC(c2nccs2)=N[C@H]1c1cccc(F)c1C (single isomer, unassigned) [Compound 196] as the molecule, how does the EC50 (HBV; [2]) read?
A: 3.3 nM

Q: What about the CC50 at 6 days [1] of the same molecule?
A: 12800 nM

Q: Which EC50 (HBV; [2]) does the source give for CCOC(=O)C1=C(CN2CC(F)(F)[C@@H]3[C@H]2CON3CC(C)(C)C(=O)O)NC(c2nccs2)=N[C@H]1c1cccc(F)c1C (single isomer, unassigned) [Compound 176] here?
A: 3 nM

Q: And the CC50 at 6 days [1]?
A: 24800 nM

Q: For CCOC(=O)C1=C(CN2CC(F)(F)[C@H]3[C@@H]2CCN3CCC(C)(C)C(=O)O)NC(c2ncoc2C)=N[C@@H]1c1cccc(F)c1C (relative stereo) [Compound 107, 4-(4-((5-(ethoxycarbonyl)-6-(3-fluoro-2-methylphenyl)-2-(5-methyloxazol-4-yl)-3,6-dihydropyrimidin-4-yl)methyl)-6,6-difluorohexahydropyrrolo[3,2-b]pyrrol-1(2H)-yl)-2,2-dimethylbutanoic acid], which EC50 (HBV; [2]) is on record?
A: 11.3 nM

Q: What about the CC50 at 6 days [1] of the same molecule?
A: 42500 nM

Q: With COC(=O)C1=C(CN2CC(F)(F)[C@@H]3CN(C(=O)C(C)(C)C(=O)O)C[C@@H]32)NC(c2nccs2)=N[C@H]1c1ccc(F)cc1Cl (single isomer, unassigned) [Compound 208, 3-((cis)-1-((6-(2-chloro-4-fluorophenyl)-5-(methoxycarbonyl)-2-(thiazol-2-yl)-3,6-dihydropyrimidin-4-yl)methyl)-3,3-difluorohexahydropyrrolo[3,4-b]pyrrol-5(1H)-yl)-2,2-dimethyl-3-oxopropanoic acid] as the molecule, how does the EC50 (HBV; [2]) read?
A: 28.6 nM

Q: And the CC50 at 6 days [1]?
A: > 100000 nM

Q: With CCOC(=O)C1=C(CN2CC(F)(F)[C@H]3[C@@H]2CCN3CCC(C)(C)C(=O)O)NC(c2nccs2)=N[C@H]1c1cccc(F)c1F (single isomer, unassigned) [Compound 142] as the molecule, how does the EC50 (HBV; [2]) read?
A: 8 nM

Q: And the CC50 at 6 days [1]?
A: > 25000 nM

Q: With CCOC(=O)C1=C(CN2CC[C@]3(F)CN(CC(C)(C)C(=O)O)C(=O)[C@H]23)NC(c2nccs2)=N[C@H]1c1cccc(F)c1C (single isomer, unassigned) [Compound 24A] as the molecule, how does the EC50 (HBV; [2]) read?
A: 221 nM

Q: What about the CC50 at 6 days [1] of the same molecule?
A: 48500 nM

Q: What does the source list for COC(=O)C1=C(CN2CC(F)(F)C3CN(CC(C)(C)C(=O)O)CC32)NC(c2nccs2)=N[C@H]1c1cccc(F)c1C (single isomer, unassigned) [Compound 19B, 3-((cis)-3,3-difluoro-1-((6-(3-fluoro-2-methylphenyl)-5-(methoxycarbonyl)-2-(thiazol-2-yl)-3,6-dihydropyrimidin-4-yl)methyl)hexahydropyrrolo[3,4-b]pyrrol-5(1H)-yl)-2,2-dimethylpropanoic acid]?
A: EC50 (HBV; [2]): 49.3 nM; CC50 at 6 days [1]: 24200 nM

Q: What does the source list for CCOC(=O)C1=C(CN2CC(F)(F)[C@@H]3[C@H]2CON3CCC(C)(C)C(=O)O)NC(c2nccs2)=N[C@H]1c1ccc(F)cc1Cl (single isomer, unassigned) [Compound 169, 4-((cis)-4-((6-(2-chloro-4-fluorophenyl)-5-(ethoxycarbonyl)-2-(thiazol-2-yl)-3,6-dihydropyrimidin-4-yl)methyl)-6,6-difluorohexahydro-1H-pyrrolo[3,2-c]isoxazol-1-yl)-2,2-dimethylbutanoic acid]?
A: EC50 (HBV; [2]): 5 nM; CC50 at 6 days [1]: > 50000 nM
